In patent publication US10696707B2, “Polyene macrolide derivative” (Shionogi & Co., Ltd., priority 2014, dated 2020):
Converted amounts (≈) assume the structure as drawn. Like-named read-outs stand apart in the source and are kept apart here.

What was measured:
C. albicans ATCC90028 = experiment: Antifungal activity test, MIC by broth microdilution (CLSI M27-A3); format: cell-based
How it was run: (§1)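 CLSI broth microdilution in RPMI 1640 with 2% glucose, 0.165 mol/L MOPS, pH 7.0; two-fold DMSO dilutions. MIC = lowest concentration giving 100% inhibition versus growth control.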

A. flavus ATCC204304 = experiment: Antifungal activity test, MIC by broth microdilution (CLSI M38-A2); format: cell-based
How it was run: as §1

A. fumigatus ATCC204305 = experiment: as above; format: cell-based
How it was run: as §1

[1] = system: red blood cells (5% RBC suspension); experiment: Test Example 2-2: in vitro hemolytic activity test (upper limit 200 μmol/L); format: cell-based; settings: read-out: hemolysis IC50
Method: Nephrotoxic potentials of the compounds of the present invention whose X is —N(R^F)—CO—X^1 and X^1 is the group represented by formula (III) and T is —N(R^a5)— were investigated by in vitro hemolytic activity test under the condition that the upper limit was 200 μmol/L as the required concentration to 50% of hemolysis (IC50).
Defibrinated sterile blood was centrifuged at 700×g for 3 minutes and, and the supernatant was removed for 100% of red blood cells. After the cleaning with physiological saline, the washed blood cells was suspended in the medium (Earle's balanced salt sodium, bicarbonate, 0.1 g/L L-glutamine without phenol red), and was diluted by 5% (5% RBC suspension).
The washed blood was diluted by 5% in water for injection (solution of complete hemolysis), and was used as the indication of optical density for complete hemolysis.
The compounds of the present invention solution in DMSO (several and doubling dilutions starting from 10 mmol/L), DMSO as the negative control, and Amphotericin B as the positive control were used, and each 5 μL of these was added in to a well of V-form 96 well type microplate. Finally, the maximum concentration of the compounds of the present invention solution in DMSO was 200 μmol/L by adding 245 μL of the medium or 5% RBC suspension into the well.
Two hundred fifty μL of the solution of complete hemolysis was added into another well and the microplate was incubated at 37° C. in 5% of CO2 concentration for an hour.
After the incubation, each 100 μL of supernatants in wells was collected by centrifugation of the microplate at 300×g for 5 minutes and was located on a well of flat-form 96 well type microplate. An absorbance of each supernatant was measured at wavelength of 540 nm.
Percent hemolysis was calculated by using the followed equation. The required concentration to 50% of hemolysis (IC50) was calculated based on the percent hemolysis. […] Hemolysis (%)=(CR−VM)×100÷(VL−VR) Where:
CR: Absorbance of 5% RBC suspension incubated with the compounds of the present invention solution in DMSO
VM: Absorbance of medium incubated with the compounds of the present invention solution in DMSO
VL: Absorbance of solution of complete hemolysis
VR: Absorbance of 5% RBC suspension incubated with DMSO
The “>200” in the table means above IC50 value exceeded the upper concentration 200 μmol/L.

HepG2 cells = format: cell-based; settings: human, 71 h
Method: The Cytotoxicith of the compounds of the present invention was evaluated by measuting cell numbers automatically using the cell image analyzer, Toxinsight® (Thermofisher Scientific).
HepG2 cells were seeded in 384-well black plates (100000 cells/mL) and allowed to attach for approximately 24 hours at 37° C. in humidified CO2 incubator. Test compounds and positive control (Fungizone®) were initially dissolved as concentrated 20 mmol/L stock solutions in DMSO and added to culture medium, to the final concentration; 1.6, 3.1, 6.3, 12.5, 25, 50, 100 μmol/L. The negative control well was treated with DMSO alone. After exposure of each test compound for approximately 71 hours, each well were added with Hoechst 33342, for staining of nuclei, diluted in D-PBS to the final concentration; 1 μg/mL, and after that, fixed with 4% paraformaldehyde. The cell number, stained with Hoechst 33342, was counted by Toxinsight® (Thermofisher Scientific) in each well. The mean value of cell number and the standard deviation (SD) was calculated (N=4).

[2] = Test Example 4: nephrotoxicity, kidney marker gene expression by quantitative RT-PCR after intravenous administration; format: in vivo; settings: mouse, kidney, mice, nephrotoxicity positive when ΔΔCt of two-third of target genes (Kim1, Timp1, Lcn2) >3
Method: The expression level of marker genes for nephrotoxicity was determined by quantitative RT-PCR to evaluate nephrotoxicity of the compound of the present invention. The compound of the present invention or vehicle was intravenously administered to mice and their kidneys were isolated. After removal of the kidney capsule, all of the kidneys were sliced into two equal halves, and stored at −80° C. in RNAlater® (Ambion) until use. Samples were disrupted and homogenized in QIAzol Lysis Reagent with TissueLyser (Qiagen), and total RNA was extracted using an RNeasy® Mini kit (Qiagen). Total RNA concentrations were determined to read OD260 by absorptiometer.
The level of expression of the following target genes was determined using one-step quantitative real-time PCR: Kim1, Timp1, and Lcn2. Total RNA (80 ng/2 μL) was used as the template, and TaqMan Gene Expression Assays (Applied Biosystems, for Haver1 (Kim1), assay ID: Mm00506686_m1; Timp1, Mm01341361_m1; Lcn2, Mm01324470_m1) or TaqMan Endogenous Controls (Gapdh, predesigned assay reagent supplied by ABI, Applied Biosystems) were employed as gene-specific probe and primer sets. Quantitative RT-PCR was performed using a QuantiTect™ Probe RT-PCR kit (Qiagen), and transcript levels were quantitated with an Applied Biosystems 7900HT Fast Real Time PCR System (Applied Biosystems). Reverse transcription and amplification conditions were set as follows: 50° C. for 30 min, 95° C. for 15 min, followed by 40 cycles at 95° C. for 15 s and 60° C. for 1 min. The resulting cycle threshold (Ct) value was processed based on the comparative Ct method (ΔΔCt Method), where Gapdh was used as an endogenous reference gene to normalize the expression level of target genes.
The ΔCt was calculated as follows: Ct, Gapdh−Ct, target gene.
The ΔΔCt was calculated as follows: ΔCt, treated sample−ΔCt, average of vehicle control sample.
Higher ΔΔCt values indicate higher expression rates of the target gene and therefore high risk for nephrotoxicity.

[3] = system: red blood cells (5% RBC suspension); experiment: Test Example 2-1: in vitro hemolytic activity test (upper limit 50, 80, 100 or 200 μmol/L); format: cell-based; settings: Erythrocyte, 1 h, read-out: hemolysis IC50
How it was run: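 A 5% suspension of washed red cells in Earle's medium was exposed to doubling dilutions of compound from DMSO, with maxima of 50, 80, 100 or 200 μmol/L final, for 1 h at 37 °C, 5% CO2. Supernatant absorbance at 540 nm was normalised to water-lysed cells. IC50 is the concentration giving 50% hemolysis; ">" values exceed the top concentration.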

[4] = Candida albicans, C. albicans ATCC90028, broth microdilution, 35° C., 24-48 hours, 100% inhibition, read-out: MIC
[5] = Aspergillus flavus, A. flavus ATCC204304, broth microdilution, 35° C., 24-48 hours, 100% inhibition, read-out: MIC
[6] = Aspergillus fumigatus, A. fumigatus ATCC204305, broth microdilution, 35° C., 24-48 hours, 100% inhibition, read-out: MIC
[7] = Erythrocyte, comparative example, hemolysis method 200 (upper limit 200 μmol/L), 37° C., an hour
[8] = C. albicans ATCC90028, broth microdilution, 35° C., 24-48 hours, 100% inhibition
[9] = A. flavus ATCC204304, broth microdilution, 35° C., 24-48 hours, 100% inhibition
[10] = A. fumigatus ATCC204305, broth microdilution, 35° C., 24-48 hours, 100% inhibition
[11] = Test Example 2-2, hemolysis method 200 (upper concentration 200 μmol/L), 5% RBC suspension, 37° C., one hour

Structure (SMILES) | MIC (C. albicans ATCC90028; [4]) [µg/mL] | MIC (A. flavus ATCC204304; [5]) [µg/mL] | MIC (A. fumigatus ATCC204305; [6]) [µg/mL] | cytotoxicity (lowest cytotoxicity concentration) (HepG2 cells) [µmol/L] | MTD [2] [mg/kg] | also measured
CNC(=O)N[C@H]1[C@@H]2C[C@@H](O[C@@H]3O[C@H](C)[C@@H](O)[C@H](N)[C@@H]3O)/C=C/C=C/C=C/C=C/C=C/C=C/C=C/[C@H](C)[C@@H](O)[C@@H](C)[C@H](C)OC(=O)C[C@H](O)C[C@H](O)CC[C@@H](O)[C@H](O)C[C@H](O)C[C@](O)(C[C@@H]1O)O2 [AmBMU, reference compound] | 0.5 (≈ 0.525 µM) | 1 (≈ 1.05 µM) | 1 (≈ 1.05 µM) | 12.5 | 12 | IC50 [1, 7]: 130 µM
C[C@@H]1[C@H](O)[C@@H](C)/C=C/C=C/C=C/C=C/C=C/C=C/C=C/[C@H](O[C@@H]2O[C@H](C)[C@@H](O)[C@H](N)[C@@H]2O)C[C@@H]2O[C@](O)(C[C@@H](O)C[C@@H](O)[C@H](O)CC[C@@H](O)C[C@@H](O)CC(=O)O[C@H]1C)C[C@H](O)[C@H]2C(=O)NC(CO[C@H]1O[C@H](CO)[C@@H](O)[C@H](O)[C@@H]1O)CO[C@H]1O[C@H](CO)[C@@H](O)[C@H](O)[C@@H]1O [I-396] | – | – | – | – | 16 | IC50 [3]: > 100 µM
C[C@@H]1[C@H](O)[C@@H](C)/C=C/C=C/C=C/C=C/C=C/C=C/C=C/[C@H](O[C@@H]2O[C@H](C)[C@@H](O)[C@H](NC(=N)N)[C@@H]2O)C[C@@H]2O[C@](O)(C[C@@H](O)C[C@@H](O)[C@H](O)CC[C@@H](O)C[C@@H](O)CC(=O)O[C@H]1C)C[C@H](O)[C@H]2CO [I-394] | – | – | – | – | > 24 | –
C[C@@H]1[C@H](O)[C@@H](C)/C=C/C=C/C=C/C=C/C=C/C=C/C=C/[C@H](O[C@@H]2O[C@H](C)[C@@H](O)[C@H](N)[C@@H]2O)C[C@@H]2O[C@](O)(C[C@@H](O)C[C@@H](O)[C@H](O)CC[C@@H](O)C[C@@H](O)CC(=O)O[C@H]1C)C[C@H](O)[C@H]2NC(=O)NCCC(=O)O [AmBCU, reference compound] | 0.5 (≈ 0.495 µM) | 1 (≈ 0.99 µM) | 1 (≈ 0.99 µM) | 25.2 | 3 | –
C[C@@H]1[C@H](O)[C@@H](C)/C=C/C=C/C=C/C=C/C=C/C=C/C=C/[C@H](O[C@@H]2O[C@H](C)[C@@H](O)[C@H](N)[C@@H]2O)C[C@@H]2O[C@](O)(C[C@@H](O)C[C@@H](O)[C@H](O)CC[C@@H](O)C[C@@H](O)CC(=O)O[C@H]1C)C[C@H](O)[C@H]2NC(=O)NNC(=O)C[C@H](O)CO [I-237] | – | – | – | – | – | MIC (C. albicans ATCC90028; [8]): 0.5 µg/mL (≈ 0.474 µM); MIC (A. flavus ATCC204304; [9]): 0.5 µg/mL (≈ 0.474 µM); MIC (A. fumigatus ATCC204305; [10]): 1 µg/mL (≈ 0.948 µM); IC50 [1, 11]: > 200 µM
C[C@@H]1[C@H](O)[C@@H](C)/C=C/C=C/C=C/C=C/C=C/C=C/C=C/[C@H](O[C@@H]2O[C@H](C)[C@@H](O)[C@H](N)[C@@H]2O)C[C@@H]2O[C@](O)(C[C@@H](O)C[C@@H](O)[C@H](O)CC[C@@H](O)C[C@@H](O)CC(=O)O[C@H]1C)C[C@H](O)[C@H]2NC(=O)NNC(=O)C(CO)CO [I-240] | – | – | – | – | – | MIC (C. albicans ATCC90028; [8]): 0.5 µg/mL (≈ 0.474 µM); MIC (A. flavus ATCC204304; [9]): 0.5 µg/mL (≈ 0.474 µM); MIC (A. fumigatus ATCC204305; [10]): 1 µg/mL (≈ 0.948 µM); IC50 [1, 11]: > 200 µM
C[C@@H]1[C@H](O)[C@@H](C)/C=C/C=C/C=C/C=C/C=C/C=C/C=C/[C@H](O[C@@H]2O[C@H](C)[C@@H](O)[C@H](N)[C@@H]2O)C[C@@H]2O[C@](O)(C[C@@H](O)C[C@@H](O)[C@H](O)CC[C@@H](O)C[C@@H](O)CC(=O)O[C@H]1C)C[C@H](O)[C@H]2NC(=O)NO [I-219] | – | – | – | – | 16 | –
C[C@@H]1[C@H](O)[C@@H](C)/C=C/C=C/C=C/C=C/C=C/C=C/C=C/[C@H](O[C@@H]2O[C@H](C)[C@@H](O)[C@H](N)[C@@H]2O)C[C@@H]2O[C@](O)(C[C@@H](O)C[C@@H](O)[C@H](O)CC[C@@H](O)C[C@@H](O)CC(=O)O[C@H]1C)C[C@H](O)[C@H]2NC(=O)NNC(N)=O [I-60] | – | – | – | – | – | MIC (C. albicans ATCC90028; Candida albicans, ATCC90028): 0.125 µg/mL (≈ 0.125 µM); MIC (A. flavus ATCC204304; Aspergillus flavus, ATCC204304): 0.5 µg/mL (≈ 0.502 µM); MIC (A. fumigatus ATCC204305; Aspergillus fumigatus, ATCC204305): 0.5 µg/mL (≈ 0.502 µM); IC50 ([1]; Erythrocyte, 1 h): > 200 µM
C[C@@H]1[C@H](O)[C@@H](C)/C=C/C=C/C=C/C=C/C=C/C=C/C=C/[C@H](O[C@@H]2O[C@H](C)[C@@H](O)[C@H](N)[C@@H]2O)C[C@@H]2O[C@](O)(C[C@@H](O)C[C@@H](O)[C@H](O)CC[C@@H](O)C[C@@H](O)CC(=O)O[C@H]1C)C[C@H](O)[C@H]2NC(=O)NNC[C@@H](O)C(=O)O [I-310] | 0.5 (≈ 0.48 µM) | 0.5 (≈ 0.48 µM) | 1 (≈ 0.96 µM) | – | – | IC50 ([1]; Erythrocyte, 1 h, Test Example 2-2, hemolysis method 200 (upper concentration 200 μmol/L), 5% RBC suspension, 37° C., one hour): > 200 µM
C[C@@H]1[C@H](O)[C@@H](C)/C=C/C=C/C=C/C=C/C=C/C=C/C=C/[C@H](O[C@@H]2O[C@H](C)[C@@H](O)[C@H](N)[C@@H]2O)C[C@@H]2O[C@](O)(C[C@@H](O)C[C@@H](O)[C@H](O)CC[C@@H](O)C[C@@H](O)CC(=O)O[C@H]1C)C[C@H](O)[C@H]2C(=O)O [AmB, Amphotericin B, reference compound] | – | – | – | <1.6 | 1 | IC50 [1, 7]: 1.6 µM
